# Measured values reported in paper PMC4161390, “Design and Synthesis of a Cell-Permeable, Drug-Like Small Molecule Inhibitor Targeting the Polo-Box Domain of Polo-Like Kinase 1” (PLoS ONE, 2014).
# Molecular target: T1, Polo-like kinase 1 polo-box domain (Plk1-PBD) (Homo sapiens, UniProt P53350)
# T1 construct: HA-EGFP-Plk1 in mitotic 293A lysates
# Experiment: ELISA-based Plk1 PBD competition assay (moderate activity)
# Format: biochemical
# T1 sequence (P53350 whole entry, the tested form may be a part): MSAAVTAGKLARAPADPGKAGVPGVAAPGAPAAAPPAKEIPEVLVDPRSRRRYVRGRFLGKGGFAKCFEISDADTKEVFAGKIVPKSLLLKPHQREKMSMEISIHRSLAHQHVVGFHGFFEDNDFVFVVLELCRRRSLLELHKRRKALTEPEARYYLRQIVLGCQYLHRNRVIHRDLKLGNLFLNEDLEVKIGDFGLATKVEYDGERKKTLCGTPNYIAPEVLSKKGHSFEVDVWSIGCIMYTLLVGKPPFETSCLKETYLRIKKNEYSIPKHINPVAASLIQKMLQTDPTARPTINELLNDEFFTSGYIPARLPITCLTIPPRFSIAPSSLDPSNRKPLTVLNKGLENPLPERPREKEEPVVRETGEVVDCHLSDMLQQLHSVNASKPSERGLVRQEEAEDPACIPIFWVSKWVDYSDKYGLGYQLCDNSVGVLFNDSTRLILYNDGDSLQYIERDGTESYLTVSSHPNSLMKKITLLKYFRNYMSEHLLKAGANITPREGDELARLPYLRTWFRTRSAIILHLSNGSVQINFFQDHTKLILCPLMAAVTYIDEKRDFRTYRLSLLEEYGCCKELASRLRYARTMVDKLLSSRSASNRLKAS
smiles,measurement,value
"O=c1c(O)cccc2cc(O)c(O)c(O)c12 [PPG, purpurogallin]",ELISA-based Plk1 PBD competition assay (moderate activity),PPG PLS5 Bg-5 Bg-6|moderate weak weak weak|
